These results are taken from patent US20260137697A1, “THIAZOLO[5,4-D]PYRIMIDINE COMPOUNDS, COMPOSITIONS COMPRISING THEM AND USES THEREOF” (University de Montreal, priority 2022, published 2026).

pIC50: −log10 of the molar value. A value given as a limit tells only on which side of the number the result lay.

The target in one test is T1, BRAF (Homo sapiens, UniProt P15056).
T1 construct: GST; purchased Millipore Sigma B4062-10UG
Nature of the test: BRAF kinase activity assay (ADP-Glo). It counts as biochemical. The settings on record: Table 3; 10 μM ATP, kinase-dead MEK1 substrate. As for the experimental part:
(§1) Compound preparation: solid samples of each substance in 1dram vials were suspended in DMSO (Fisher Scientific) at a stock concentration of 20 mM. Stocks were kept at −20° C. and protected from light. If solubility of the compound at 20 mM appeared to be an issue, the initial concentration of the DMSO stock was changed to 10 mM or 5 mM.
(§2) In vitro enzymatic reactions were used for evaluating compounds intrinsic activity against BRAF, CRAF and ARAF. For BRAF and CRAF, 0.375 nM of purified GST-tagged kinases (cat. No. B4062-10UG and cat. No. R1656-10UG respectively from Millipore Sigma) were incubated with 75 nM of kinase-dead MEK1 substrate (cat. No. 40075; BPS Bioscience) in the presence of 10 μM of Ultrapure ATP (cat. No. V9102; Promega; part V915A) with and without the test compound in a buffer containing 50 mM HEPES pH 7.5, 10 mM MgCl2, 1 mM EDTA, 0.01% Brij-35 and 2 mM DTT. Separate reactions were performed with the MEK1 substrate and ATP as a blank control. ARAF kinase reactions were rigorously the same with the exception that kinase concentration was raised to 3.75 nM (cat. No. 1768-0000-1; Reaction Biology).
(§3) For compound treatment, 5 μL/well of test substance solution are placed in a 384-well proxyplate (Perkin Elmer) and mixed with 2× concentrated kinase reactions. The dilution series is selected so that nine concentrations cover a range from 100 nM to 0.01 nM. […] The final concentration of DMSO in the assay is set at 0.05%.
(§4) BRAF and CRAF kinase reactions were carried out for a total of 2 hours at 30° C. and then stopped by 1/2 dilution in ADP-Glo Reagent (cat. No. V9102; Promega; part V912C). Reactions were then incubated for 1 h at room temperature before addition of one volume of Kinase Detection Reagent (cat. No. V9102; Promega; part V917A). Plates were then equilibrated at room temperature for 30 minutes before detection of luminescence on a Synergy Neo2 plate reader (Biotek). The effect of each compound dilution on BRAF and CRAF kinase activity was expressed as % inhibition and calculated as follows. First, the internal 100% inhibition control (average of luminescence in kinase reactions comprising kinase dead MEK1 substrate alone) was subtracted from each data point. The average of DMSO (vehicle) controls (set as 0% inhibition) was established and used to calculate % inhibition:
(§5) IC50 values were obtained by plotting the kinase inhibition values and fitting the dose-activity curves using a log(agonist) versus response—variable slope (four parameters) function using either GraphPadPrism (V7.0) or Dotmatics Screening Ultra platform. Standards included in the ARAF kinase assay were Belvarafenib (MedChem Express cat. No. HY-109080; CAS No. 1446113-23-0), LXH254 (MedChem Express cat. No. HY-112089; CAS No. 1800398-38-2) and BGB283 (cat. No. HY-18957; CAS No. 1446090-79-4).
For orientation: In ADP-Glo the light output rises with the ADP produced.

The target in another test is T2, CRAF (Homo sapiens, UniProt P04049).
T2 construct: fused on or other part: GST tag (N-terminal according to the vendor's product)
T2 sequence (P04049 whole entry Y340E/Y341E, form open, the tested form may be a part): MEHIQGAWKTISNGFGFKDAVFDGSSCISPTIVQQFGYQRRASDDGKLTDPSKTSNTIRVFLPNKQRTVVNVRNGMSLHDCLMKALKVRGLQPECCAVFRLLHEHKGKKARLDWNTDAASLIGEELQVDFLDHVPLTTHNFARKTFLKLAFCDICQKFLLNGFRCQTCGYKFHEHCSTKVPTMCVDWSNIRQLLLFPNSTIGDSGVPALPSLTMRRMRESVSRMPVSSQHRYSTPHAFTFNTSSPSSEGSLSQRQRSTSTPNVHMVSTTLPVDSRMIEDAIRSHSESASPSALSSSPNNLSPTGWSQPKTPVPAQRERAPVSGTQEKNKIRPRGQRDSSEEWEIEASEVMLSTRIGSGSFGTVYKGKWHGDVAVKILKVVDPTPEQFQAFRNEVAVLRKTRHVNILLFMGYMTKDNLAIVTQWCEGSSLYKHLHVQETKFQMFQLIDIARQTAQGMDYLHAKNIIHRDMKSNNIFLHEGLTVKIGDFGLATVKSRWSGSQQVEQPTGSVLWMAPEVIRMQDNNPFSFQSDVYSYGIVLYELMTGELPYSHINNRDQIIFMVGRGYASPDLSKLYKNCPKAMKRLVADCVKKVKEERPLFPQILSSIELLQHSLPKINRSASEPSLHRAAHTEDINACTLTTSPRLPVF
Nature of the test: CRAF kinase activity assay (ADP-Glo). Type of test: biochemical. To be noted: Table 3; 10 μM ATP, kinase-dead MEK1 substrate. On the procedure:
as §1, §2, §3, §4, §5

For the next test, the system named is pERK, HCT116 cells. Nature of the test: Phospho-ERK inhibition, AlphaLISA p-ERK 1/2, HCT-116. Type of test: cell-based, human. The settings on record: Table 3; for pIC50: HCT116 cells (KRAS G13D), 1 h treatment; for HCT116 pERK (Ymin %): lowest % inhibition value of the pERK IC50 curve, above −20% = no paradoxical induction. On the procedure: All cancer cell lines (A375, A101D, A2058, RKO, HT29 SK-MEL 30, IPC298, HepG2, HCT-116, Lovo, SW620, SW480, NCI-H358, NCI-H2122, Calu-6, NCIH2087, NCIH1755, NCIH1666 and Mewo) were obtained from ATCC and cultured in RPM1-1640 medium (Gibco) supplemented with 5% heat inactivated fetal bovine serum (FBS, Wisent) at 37° C. under 5% CO2. Cells were maintained in T175 flasks (Greiner). They were passaged by removing the culture medium, washing once in 10 mL of room temperature Phosphate Buffered Saline (PBS; Wisent) and incubating at 37° C. with 2 mL of 0.05% Trypsin (Thermo-Fisher). Trypsin was then inactivated by adding complete growth medium and the cells were then replated in a T175 culture dish at the appropriate dilution. All cell lines were routinely tested for mycoplasma contamination. Tissue type and mutational status of each cell line can be found in Table B.
(c) Measurement of Phospho-ERK Inhibition in Cultivated Human Cancer Cell Lines by the AlphaLISA® SureFire® Ultra™ p-ERK 1/2 (Thr2O2/Tyr204)
AlphaLISA® SureFire® Ultra™ p-ERK 1/2 (Thr202/Tyr204) analysis was conducted on cells plated in 100 μL of complete RPMI-1640 growth medium in 96-well flat-bottomed transparent dishes (Costar) at a density indicated in Table C. Cells were maintained overnight at 37° C. under 5% CO2 before treatment with compounds' dilution series for one hour. The cell density in cells/cm^2 corresponds to cell number divided by the area of one well of a 96-well plate (0.143 cm^2).
In a dilution series 100 μL/well of test substance dilution prepared in complete RPMI-1640 growth media was added to the cells. The dilution series is selected so that ten concentrations cover a range from 10 μM to 0.33 nM. If necessary, the initial concentration of 10 μM is increased to 100 μM or lowered to 1 μM (as in the case of A375 and H1666 cells, which are generally more sensitive to the compounds) and further dilution is carried out accordingly. The final concentration of DMSO in the assay is set at 0.5%.
After treatment, media was removed, and cells were lysed in 50 μL of 1× AlphaScreen Ultra Lysis Buffer (Perkin Elmer). The AlphaLISA® SureFire® Ultra™ p-ERK 1/2 (Thr202/Tyr204) (PerkinElmer) reactions were performed with 5 μL of cell lysate according to the manufacturer's specifications in 384-well proxyplates (Perkin Elmer) followed by overnight incubation of the reactions at room temperature in a humidified chamber. After completion of the reactions, the signals were recorded on an EnVision plate reader (Perkin Elmer) using built in AlphaLISA® settings.
The effect of each compound dilution on the pERK signal was expressed in % inhibition and calculated as follows. An internal 100% inhibition control (1 μM trametinib, cat. No. HY-10999; MedChem Express; CAS No. 871700-17-3) was included in each plate and used as a measure of pERK background. First, the value obtained for trametinib was subtracted from each data point. The average of DMSO (vehicle) controls (set as 0% inhibition) was established and used to calculate % inhibition:
The ability of each compound to inhibit pERK signal was expressed as an IC50 value obtained by plotting the inhibition values for each data point of a dilution series and fitting the obtained curves using a log(agonist) versus response—variable slope (four parameters) function using GraphPadPrism (V7.0) or Dotmatics Screening Ultra platform.
When present, paradoxical pERK induction is inferred from the negative % inhibition values observed in the pERK IC50 curves of a compound.
For orientation: Bead proximity is the source of the signal in Alpha formats.

T1 sequence (P15056 whole entry): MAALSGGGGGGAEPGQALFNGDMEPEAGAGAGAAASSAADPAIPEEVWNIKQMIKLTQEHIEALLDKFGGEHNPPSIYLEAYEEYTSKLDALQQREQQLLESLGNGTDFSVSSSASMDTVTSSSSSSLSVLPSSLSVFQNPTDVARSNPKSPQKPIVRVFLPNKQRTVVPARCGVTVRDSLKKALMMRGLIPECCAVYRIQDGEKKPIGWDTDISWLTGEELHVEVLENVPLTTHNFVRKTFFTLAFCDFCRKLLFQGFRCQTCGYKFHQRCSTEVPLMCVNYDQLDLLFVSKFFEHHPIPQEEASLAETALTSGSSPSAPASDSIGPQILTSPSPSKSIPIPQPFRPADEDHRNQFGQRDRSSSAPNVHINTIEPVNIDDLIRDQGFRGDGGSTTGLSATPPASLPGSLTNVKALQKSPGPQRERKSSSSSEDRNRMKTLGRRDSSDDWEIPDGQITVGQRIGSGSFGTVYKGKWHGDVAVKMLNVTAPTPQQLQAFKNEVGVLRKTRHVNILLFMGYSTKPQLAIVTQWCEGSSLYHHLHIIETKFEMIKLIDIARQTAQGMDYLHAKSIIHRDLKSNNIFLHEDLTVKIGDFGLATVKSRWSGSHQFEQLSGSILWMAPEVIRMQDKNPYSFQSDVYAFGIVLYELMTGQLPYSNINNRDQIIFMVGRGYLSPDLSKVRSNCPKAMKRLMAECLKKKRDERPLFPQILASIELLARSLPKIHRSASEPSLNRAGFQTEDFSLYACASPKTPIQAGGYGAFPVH

What is called pIC50 is the IC50 on a negative log10 scale, so that one unit is a factor of ten. For `O=S(=O)(Nc1ccc(F)c(Nc2ncnc3sc(-n4cnc5c(N6CCC[C@@H](O)C6)cccc54)nc23)c1F)c1cccc(Cl)c1Cl` [Example 148], the pIC50 on BRAF was 8.00 to 9.00; at CRAF, 7.30 to 8.00; in the test with pERK, HCT116 cells, above 6.30. The “HCT116 pERK (Ymin %)” value in the test on pERK, HCT116 cells is −2%.
The matching figures for `O=C(c1cn(-c2nc3c(Nc4c(F)ccc(NS(=O)(=O)c5cccc(Cl)c5Cl)c4F)ncnc3s2)c2ccccc12)N1CCC(CO)C1` (stereo not shown) [Example 52]: above 9.00, above 8.00, 6.00 to 6.30 and −9%.
The matching figures for `O=C(c1cn(-c2nc3c(Nc4c(F)ccc(NS(=O)(=O)c5cccc(Cl)c5Cl)c4F)ncnc3s2)c2ccccc12)N1CC2(CCOCC2)C1` [Example 58]: 8.00 to 9.00, above 8.00, above 6.30 and −12%.
The matching figures for `CC1COCCN1S(=O)(=O)c1cn(-c2nc3c(Nc4c(F)ccc(NS(=O)(=O)c5cccc(Cl)c5Cl)c4F)ncnc3s2)c2ccccc12` (stereo not shown) [Example 69]: below 8.00, 7.30 to 8.00, 6.00 to 6.30 and −7%.
As for `Cc1cn(-c2nc3c(Nc4c(F)ccc(NS(=O)(=O)c5cccc(Cl)c5Cl)c4F)ncnc3s2)cn1` [Example 125], the pIC50 on BRAF was 8.00 to 9.00; at CRAF, above 8.00; with pERK, HCT116 cells it was 6.00 to 6.30. For the same compound, the “HCT116 pERK (Ymin %)” value in the test with pERK, HCT116 cells was determined as 2%.
In the case of `CCC1(O)CCN(c2cccc3c2ncn3-c2nc3c(Nc4c(F)ccc(NS(=O)(=O)c5cccc(Cl)c5Cl)c4F)ncnc3s2)CC1` [Example 149], the pIC50 was 8.00 to 9.00 at BRAF; 7.30 to 8.00 on CRAF; above 6.30 with pERK, HCT116 cells. For the same compound, the “HCT116 pERK (Ymin %)” value in the test with pERK, HCT116 cells was determined as 16%.
The matching figures for `CC(=O)N1CCN(c2cccc3c2ncn3-c2nc3c(Nc4c(F)ccc(NS(=O)(=O)c5cccc(Cl)c5Cl)c4F)ncnc3s2)CC1` [Example 130]: above 9.00, above 8.00, above 6.30 and −2%.
The matching figures for `O=S(=O)(Nc1ccc(F)c(Nc2ncnc3sc(-n4cnc5c(-c6cccnc6)cccc54)nc23)c1F)c1cccc(Cl)c1Cl` [Example 9]: 8.00 to 9.00, above 8.00, 6.00 to 6.30 and −9%.
In the case of `CC1(C#N)CCN(c2cccc3c2ncn3-c2nc3c(Nc4c(F)ccc(NS(=O)(=O)c5cccc(Cl)c5Cl)c4F)ncnc3s2)CC1` [Example 145], the negative logarithm of the IC50 (pIC50) was 8.00 to 9.00 on BRAF; below 7.30 on CRAF; above 6.30 in the test with pERK, HCT116 cells. Also, the “HCT116 pERK (Ymin %)” value in the test on pERK, HCT116 cells is on record as −13%.
`O=C(c1cn(-c2nc3c(Nc4c(F)ccc(NS(=O)(=O)c5cccc(Cl)c5Cl)c4F)ncnc3s2)c2ccccc12)N1C2CCC1CC(O)C2` (stereo not shown) [Example 86]: the pIC50 was 8.00 to 9.00 at BRAF; above 8.00 on CRAF; above 6.30 in the test with pERK, HCT116 cells. In the test on pERK, HCT116 cells, the “HCT116 pERK (Ymin %)” value is reported as 4%.
The matching figures for `O=S(=O)(Nc1ccc(F)c(Nc2ncnc3sc(-n4cnc5c(N6CCOC(CO)C6)cccc54)nc23)c1F)c1cccc(Cl)c1Cl` (stereo not shown) [Example 141]: above 9.00, above 8.00, above 6.30 and 2%.
In the case of `CS(=O)(=O)c1cn(-c2nc3c(Nc4c(F)ccc(NS(=O)(=O)c5cccc(Cl)c5Cl)c4F)ncnc3s2)c2ccccc12` [Example 72], the pIC50 on BRAF is 8.00 to 9.00; on CRAF, above 8.00; with pERK, HCT116 cells (Homo sapiens, HCT-116) it was 6.00 to 6.30.
In the case of `CC(C)S(=O)(=O)c1cn(-c2nc3c(Nc4c(F)ccc(NS(=O)(=O)c5cccc(Cl)c5Cl)c4F)ncnc3s2)c2ccccc12` [Example 73], the pIC50 is 8.00 to 9.00 at BRAF; below 7.30 on CRAF; above 6.30 in the test with pERK, HCT116 cells. In addition, the “HCT116 pERK (Ymin %)” value with pERK, HCT116 cells is −12%.
The like results for `COc1ccc(S(=O)(=O)Nc2ccc(F)c(Nc3ncnc4sc(-n5cnc6ccccc65)nc34)c2F)c(C)c1Cl` [Example 14] were, in that order, 8.00 to 9.00, 7.30 to 8.00, 5.00 to 6.00 and −14%.
With `N#CCc1cn(-c2nc3c(Nc4c(F)ccc(NS(=O)(=O)c5cccc(Cl)c5Cl)c4F)ncnc3s2)cn1` [Example 124], the pIC50 at BRAF is 8.00 to 9.00; on CRAF, above 8.00; in the test with pERK, HCT116 cells it was above 6.30. Further, the “HCT116 pERK (Ymin %)” value in the test on pERK, HCT116 cells was determined as 12%.
The matching figures for `CC1(CO)CCN(c2cccc3c2ncn3-c2nc3c(Nc4c(F)ccc(NS(=O)(=O)c5cccc(Cl)c5Cl)c4F)ncnc3s2)CC1` [Example 138]: below 8.00, below 7.30, above 6.30 and −14%.
Take `N#CCC1CN(C(=O)c2cn(-c3nc4c(Nc5c(F)ccc(NS(=O)(=O)c6cccc(Cl)c6Cl)c5F)ncnc4s3)c3ccccc23)C1` [Example 60]: the pIC50 is above 9.00 on BRAF; above 8.00 on CRAF; above 6.30 in the test with pERK, HCT116 cells. Further, the “HCT116 pERK (Ymin %)” value in the test with pERK, HCT116 cells is reported as −2%.
